Measured values: patent publication US20240217957A1, “HETEROCYCLIC COMPOUND AND USE THEREOF” (TAKEDA PHARMACEUTICAL COMPANY LIMITED, priority 2022, published 2024)

target: T1, human OX2 receptor (Homo sapiens, UniProt O43614); assay: Measurement of orexin type 2 receptor agonist activity (calcium fluorescence, Fluo-4 AM, FDSS); type: cell-based; settings: compound at 3 μM; CHO cells forcibly expressing human OX2 receptor; DMSO = 0%, 10 nM orexin A (human) = 100%
T1 construct: expressed in transfected cells
T1 sequence (O43614 1-444): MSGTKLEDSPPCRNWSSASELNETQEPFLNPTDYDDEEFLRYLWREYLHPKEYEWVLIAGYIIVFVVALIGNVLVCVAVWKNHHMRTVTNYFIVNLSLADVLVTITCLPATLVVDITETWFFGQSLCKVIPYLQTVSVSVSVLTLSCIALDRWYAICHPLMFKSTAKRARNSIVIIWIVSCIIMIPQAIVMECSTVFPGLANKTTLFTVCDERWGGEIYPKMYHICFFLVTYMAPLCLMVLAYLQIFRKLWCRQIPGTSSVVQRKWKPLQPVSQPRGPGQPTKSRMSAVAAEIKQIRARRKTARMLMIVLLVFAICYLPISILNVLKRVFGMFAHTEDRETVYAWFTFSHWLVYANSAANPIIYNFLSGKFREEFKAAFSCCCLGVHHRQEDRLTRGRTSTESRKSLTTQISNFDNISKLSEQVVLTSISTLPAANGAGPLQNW
How it was run: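 Agonist response is expressed as % of the fluorescence change given by 10 nM human orexin A, with DMSO as 0%, read over 1 min 40 s on FDSS after compound addition. Cells: stable human OX2 (1-444) CHO-K1 clones, dye-loaded with Fluo-4 AM plus probenecid in HEPES-buffered HBSS with 0.1% BSA.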

OX2R agonist activity (3 μM, %) [%] | Structure (SMILES)
96 | CS(=O)(=O)N[C@@H]1CN(C2=NOC(c3ncc(Cl)cc3-c3c(F)cccc3F)C2)C[C@@H]1F (stereo partly drawn) [Example 103, N-[(3R,4S)-1-{5-[5-chloro-3-(2,6-difluorophenyl)pyridin-2-yl]-4,5-dihydro-1,2-oxazol-3-yl}-4-fluoropyrrolidin-3-yl]methanesulfonamide]
103 | Cc1cnc([C@@H]2CC(N3CC[C@H](NS(=O)(=O)C(F)F)C3)=NO2)c(-c2c(F)cccc2F)c1 [Example 37, N-[(3S)-1-{(5S)-5-[3-(2,6-difluorophenyl)-5-methylpyridin-2-yl]-4,5-dihydro-1,2-oxazol-3-yl}pyrrolidin-3-yl]-1,1-difluoromethanesulfonamide]
95 | O=S(=O)(CF)N[C@H]1CCN(C2=NOC(c3ncc(Br)cc3-c3c(F)cccc3F)C2)C1 (stereo partly drawn) [Example 102, N-[(3S)-1-{5-[5-bromo-3-(2,6-difluorophenyl)pyridin-2-yl]-4,5-dihydro-1,2-oxazol-3-yl}pyrrolidin-3-yl]-1-fluoromethanesulfonamide]
103 | Cc1ncc(C2CC(N3C[C@@H](NS(C)(=O)=O)C(F)(F)C3)=NO2)c(-c2c(F)cccc2F)n1 (stereo partly drawn) [Example 134, N-[(3R)-1-{5-[4-(2,6-difluorophenyl)-2-methylpyrimidin-5-yl]-4,5-dihydro-1,2-oxazol-3-yl}-4,4-difluoropyrrolidin-3-yl]methanesulfonamide]
93 | Cc1cnc(C2CC(N3CC[C@@H](NS(C)(=O)=O)C(F)(F)CC3)=NO2)c(-c2c(F)cccc2F)c1 (stereo partly drawn) [Example 28, N-[(4R)-1-{5-[3-(2,6-difluorophenyl)-5-methylpyridin-2-yl]-4,5-dihydro-1,2-oxazol-3-yl}-5,5-difluoroazepan-4-yl]methanesulfonamide]
99 | CS(=O)(=O)N[C@@H]1CN(C2=NOC(c3ncc(Br)cc3-c3c(F)cc(F)cc3F)C2)C[C@@H]1F (stereo partly drawn) [Example 85, N-[(3R,4S)-1-{5-[5-bromo-3-(2,4,6-trifluorophenyl)pyridin-2-yl]-4,5-dihydro-1,2-oxazol-3-yl}-4-fluoropyrrolidin-3-yl]methanesulfonamide]
77 | Cc1cnc(C2CC(N(C)[C@H]3C[C@@H](NS(C)(=O)=O)C3)=NO2)c(-c2c(F)cccc2F)c1 (stereo partly drawn) [Example 27, N-{(1s,3s)-3-[{5-[3-(2,6-difluorophenyl)-5-methylpyridin-2-yl]-4,5-dihydro-1,2-oxazol-3-yl}(methyl)amino]cyclobutyl}methanesulfonamide]
98 | Cc1cnc([C@@H]2CC(N3C[C@H](F)[C@H](NS(=O)(=O)C4(F)CC4)C3)=NO2)c(-c2c(F)cc(F)cc2F)c1 (single isomer, unassigned) [Example 107, optical isomer of 1-fluoro-N-[(3R,4S)-4-fluoro-1-{(5S)-5-[5-methyl-3-(2,4,6-trifluorophenyl)pyridin-2-yl]-4,5-dihydro-1,2-oxazol-3-yl}pyrrolidin-3-yl]cyclopropane-1-sulfonamide or 1-fluoro-N-[(3S,4R)-4-fluoro-1-{(5S)-5-[5-methyl-3-(2,4,6-trifluorophenyl)pyridin-2-yl]-4,5-dihydro-1,2-oxazol-3-yl}pyrrolidin-3-yl]cyclopropane-1-sulfonamide]
97 | CS(=O)(=O)N[C@@H]1CN(C2=NOC(c3ncc(Cl)cc3-c3c(F)cccc3F)C2)C[C@@H]1F (stereo partly drawn) [Example 80, N-[(3R,4S)-1-{5-[5-chloro-3-(2,6-difluorophenyl)pyridin-2-yl]-4,5-dihydro-1,2-oxazol-3-yl}-4-fluoropyrrolidin-3-yl]methanesulfonamide]
98 | Cc1cnc([C@@H]2CC(N3C[C@H](F)[C@H](NS(C)(=O)=O)C3)=NO2)c(-c2c(F)cccc2F)c1 [Example 32, N-[(3R,4S)-1-{(5S)-5-[3-(2,6-difluorophenyl)-5-methylpyridin-2-yl]-4,5-dihydro-1,2-oxazol-3-yl}-4-fluoropyrrolidin-3-yl]methanesulfonamide]
94 | CS(=O)(=O)N[C@@H]1CN(C2=NOC(c3ncc(F)cc3-c3c(F)cc(F)cc3F)C2)CC1(F)F (stereo partly drawn) [Example 70, N-[(3R)-4,4-difluoro-1-{5-[5-fluoro-3-(2,4,6-trifluorophenyl)pyridin-2-yl]-4,5-dihydro-1,2-oxazol-3-yl}pyrrolidin-3-yl]methanesulfonamide]

Continued, compound first:

Structure (SMILES) | OX2R agonist activity (3 μM, %) [%]
CS(=O)(=O)N[C@@H]1CN(C2=NOC(CF)(c3ncc(F)cc3-c3c(F)cc(F)cc3F)C2)CC1(F)F (stereo partly drawn) [Example 147, N-[(3R)-4,4-difluoro-1-{5-(fluoromethyl)-5-[5-fluoro-3-(2,4,6-trifluorophenyl)pyridin-2-yl]-4,5-dihydro-1,2-oxazol-3-yl}pyrrolidin-3-yl]methanesulfonamide] | 98
CCS(=O)(=O)N[C@@H]1CN(C2=NOC(CF)(c3ncccc3-c3c(F)cccc3F)C2)CC1(F)F (stereo partly drawn) [Example 151, N-[(3R)-1-{5-[3-(2,6-difluorophenyl)pyridin-2-yl]-5-(fluoromethyl)-4,5-dihydro-1,2-oxazol-3-yl}-4,4-difluoropyrrolidin-3-yl]ethanesulfonamide] | 107
C[C@]1(F)CN(C2=NOC(c3c(F)ccc(F)c3-c3c(F)cccc3F)C2)C[C@H]1NS(C)(=O)=O (single isomer, unassigned) [Example 168] | 103
Cc1ccc(C2CC(N3C[C@@H](NS(C)(=O)=O)C(F)(F)C3)=NO2)c(-c2ncc(F)cc2F)c1 (stereo partly drawn) [Example 106, N-[(3R)-1-{5-[2-(3,5-difluoropyridin-2-yl)-4-methylphenyl]-4,5-dihydro-1,2-oxazol-3-yl}-4,4-difluoropyrrolidin-3-yl]methanesulfonamide] | 108
O=S(=O)(CF)N[C@@H]1CN(C2=NOC(c3c(F)ccc(F)c3-c3c(F)cccc3F)C2)CC1(F)F (stereo partly drawn) [Example 173, N-{(3R)-4,4-difluoro-1-[5-(2′,3,6,6′-tetrafluoro[1,1′-biphenyl]-2-yl)-4,5-dihydro-1,2-oxazol-3-yl]pyrrolidin-3-yl}-1-fluoromethanesulfonamide] | 100
Cc1cc(F)c(C2CC(N3C[C@@H](NS(=O)(=O)CF)C(F)(F)C3)=NO2)c(-c2ncc(F)cc2F)c1 (stereo partly drawn) [Example 177, N-[(3R)-1-{5-[2-(3,5-difluoropyridin-2-yl)-6-fluoro-4-methylphenyl]-4,5-dihydro-1,2-oxazol-3-yl}-4,4-difluoropyrrolidin-3-yl]-1-fluoromethanesulfonamide] | 106
Cc1cnc([C@@H]2CC(N3CC[C@H](NS(=O)(=O)C(C)F)C3)=NO2)c(-c2c(F)cc(F)cc2F)c1 (stereo partly drawn) [Example 100, 1-fluoro-N-[(3S)-1-{(5S)-5-[5-methyl-3-(2,4,6-trifluorophenyl)pyridin-2-yl]-4,5-dihydro-1,2-oxazol-3-yl}pyrrolidin-3-yl]ethane-1-sulfonamide] | 99
Cc1cnc([C@@H]2CC(N3C[C@@H](NS(=O)(=O)CF)C(F)(F)C3)=NO2)c(-c2c(F)cc(F)cc2F)c1 [Example 58, N-[(3R)-4,4-difluoro-1-{(5S)-5-[5-methyl-3-(2,4,6-trifluorophenyl)pyridin-2-yl]-4,5-dihydro-1,2-oxazol-3-yl}pyrrolidin-3-yl]-1-fluoromethanesulfonamide] | 103
CS(=O)(=O)N[C@@H]1CN(C2=NOC(c3c(F)cc(F)c(F)c3-c3c(F)cccc3F)C2)CC1(F)F (stereo partly drawn) [Example 172, N-{(3R)-4,4-difluoro-1-[5-(2′,3,5,6,6′-pentafluoro[1,1′-biphenyl]-2-yl)-4,5-dihydro-1,2-oxazol-3-yl]pyrrolidin-3-yl}methanesulfonamide] | 99
Cc1cc(F)c(C2CC(N3C[C@@H](NS(C)(=O)=O)C(F)(F)C3)=NO2)c(-c2ncccc2F)c1 (stereo partly drawn) [Example 176, N-[(3R)-4,4-difluoro-1-{5-[2-fluoro-6-(3-fluoropyridin-2-yl)-4-methylphenyl]-4,5-dihydro-1,2-oxazol-3-yl}pyrrolidin-3-yl]methanesulfonamide] | 109
O=S(=O)(CF)N[C@H]1CCN(C2=NOC(c3ncc(F)cc3-c3c(F)cc(F)cc3F)C2)C1 (stereo partly drawn) [Example 36, 1-fluoro-N-[(3S)-1-{5-[5-fluoro-3-(2,4,6-trifluorophenyl)pyridin-2-yl]-4,5-dihydro-1,2-oxazol-3-yl}pyrrolidin-3-yl]methanesulfonamide] | 103
Cc1cnc([C@@H]2CC(O[C@H]3C[C@H](NS(C)(=O)=O)C3)=NO2)c(-c2c(F)cc(F)cc2F)c1 [Example 74, N-[(1s,3r)-3-({(5S)-5-[5-methyl-3-(2,4,6-trifluorophenyl)pyridin-2-yl]-4,5-dihydro-1,2-oxazol-3-yl}oxy)cyclobutyl]methanesulfonamide] | 58
CS(=O)(=O)N[C@@H]1CN(C2=NOC(CF)(c3ncccc3-c3c(F)cccc3F)C2)CC1(F)F (stereo partly drawn) [Example 150, N-[(3R)-1-{5-[3-(2,6-difluorophenyl)pyridin-2-yl]-5-(fluoromethyl)-4,5-dihydro-1,2-oxazol-3-yl}-4,4-difluoropyrrolidin-3-yl]methanesulfonamide] | 95
